According to ChEMBL document CHEMBL1156786, “Conformationally constrained mimetics of laminin peptide YIGSR as precursors for antimetastatic disintegrins” (J Med Chem, 2009):
Where a SMILES comes first, the peptide text is derived from it.

Legend:
Assay type in all cases: cell-based
[1] = target: Small ribosomal subunit protein uS2 (Homo sapiens) (UniProt P08865); test: Binding affinity to LAMR1 in human HeLa cells assessed as maximal cell attachment to compound coated plates after 3 hrs by hemocytometer
[2] = target: Small ribosomal subunit protein uS2 (Mus musculus) (UniProt P14206); test: Binding affinity to LAMR1 in mouse B16-F10 cells assessed as maximal cell attachment to compound coated plates after 3 hrs by hemocytometer
[3] = target: Small ribosomal subunit protein uS2 (Homo sapiens) (UniProt P08865); test: Binding affinity to LAMR1 in human HT1080 cells assessed as maximal cell attachment to compound coated plates after 3 hrs by hemocytometer; settings: HT-1080
[4] = target: Small ribosomal subunit protein uS2 (Homo sapiens) (UniProt P08865); test: Binding affinity to LAMR1 in human HT1080 cells assessed as maximal cell attachment to compound coated plates at 20 ug/well after 3 hrs by hemocytometer; settings: HT-1080
[5] = target: Small ribosomal subunit protein uS2 (Homo sapiens) (UniProt P08865); test: Binding affinity to LAMR1 in human HT1080 cells assessed as maximal cell attachment to compound coated plates at 0.2 ug/well after 3 hrs by hemocytometer; settings: HT-1080

| Activity [1] [%] | Activity [2] [%] | Activity [3] [%] | Activity [4] [%] | Activity [5] [%] | SMILES |
| --- | --- | --- | --- | --- | --- |
| 43 | 58 | 76 | – | – | CC[C@H](C)[C@@H]1NC(=O)[C@H](Cc2ccc(O)cc2)NC(=O)[C@H](CC(N)=O)NC(=O)[C@H](CCCNC(=N)N)NC(=O)[C@H](CO)NC(=O)[C@@H](CCC(=O)O)NC1=O |
| 45 | 68 | 72 | – | – | CC[C@H](C)[C@@H]1NC(=O)[C@H](Cc2ccc(O)cc2)NC(=O)CNC(=O)[C@H](CCCNC(=N)N)NC(=O)[C@H](CO)NC(=O)[C@@H](CO)NC1=O |
| – | – | 62 | – | – | CC[C@H](C)[C@@H]1NC(=O)[C@H](Cc2ccc(O)cc2)NC(=O)CNC(=O)[C@@H]2CCCN2C(=O)[C@H](CC(=O)O)NC(=O)[C@H](CCCNC(=N)N)NC(=O)[C@H](CO)NC(=O)[C@@H](CCC(=O)O)NC1=O |
| 46 | 45 | 81 | 40 | 20 | CC[C@H](C)[C@@H]1NC(=O)[C@H](Cc2ccc(O)cc2)NC(=O)[C@H](CC(N)=O)NC(=O)[C@H](CCCNC(=N)N)NC(=O)[C@H](CO)NC(=O)[C@@H](CO)NC1=O |
| – | – | 75 | – | – | CC[C@H](C)[C@@H]1NC(=O)[C@H](Cc2ccc(O)cc2)NC(=O)CNC(=O)[C@@H]2CCCN2C(=O)[C@H](CC(=O)O)NC(=O)[C@H](CCCNC(=N)N)NC(=O)[C@H](CO)NC(=O)[C@@H](CO)NC1=O |
| – | – | 57 | – | – | CC[C@H](C)[C@@H]1NC(=O)[C@H](Cc2ccc(O)cc2)NC(=O)[C@H](CC(N)=O)NC(=O)[C@H](CCCNC(=N)N)NC(=O)[C@H](CO)NC(=O)[C@@H]2CCCN2C(=O)[C@H]([C@@H](C)CC)NC(=O)[C@H](Cc2ccc(O)cc2)NC(=O)[C@H](CC(N)=O)NC(=O)[C@H](CCCNC(=N)N)NC(=O)[C@H](CO)NC(=O)[C@@H]2CCCN2C1=O (cyclo(IPSRNYIPSRNY)) |
| – | – | 76 | – | – | CC[C@H](C)[C@@H]1NC(=O)[C@H](Cc2ccc(O)cc2)NC(=O)[C@H]2CCCN2C(=O)[C@H](CCCNC(=N)N)NC(=O)[C@H](CO)NC(=O)[C@@H](CO)NC1=O |
| 29 | – | 64 | – | – | CC[C@H](C)[C@@H]1NC(=O)[C@H](Cc2ccc(O)cc2)NC(=O)[C@H](CC(N)=O)NC(=O)[C@H](CCCNC(=N)N)NC(=O)[C@H](CO)NC(=O)[C@@H](CCCCN)NC1=O |
| – | – | 45 | – | – | CC[C@H](C)[C@@H]1NC(=O)[C@H](Cc2ccc(O)cc2)NC(=O)CNC(=O)[C@@H]2CCCN2C(=O)[C@H](CC(=O)O)NC(=O)[C@H](CCCNC(=N)N)NC(=O)[C@H](CO)NC(=O)[C@@H](CCCCN)NC1=O |
| 40 | 62 | 67 | – | – | CC[C@H](C)[C@@H]1NC(=O)[C@H](Cc2ccc(O)cc2)NC(=O)CNC(=O)[C@@H]2CCCN2C(=O)[C@H](CC(=O)O)NC(=O)[C@H](CCCNC(=N)N)NC(=O)[C@H](CO)NC(=O)CNC1=O (cyclo(DPGYIGSR)) |
| 32 | – | 53 | – | – | CC[C@H](C)[C@@H]1NC(=O)[C@H](Cc2ccc(O)cc2)NC(=O)[C@H](CC(N)=O)NC(=O)[C@H](CCCNC(=N)N)NC(=O)[C@H](CO)NC(=O)[C@@H]2CCCN2C1=O (cyclo(IPSRNY)) |
| 32 | – | 56 | – | – | CC[C@H](C)[C@@H]1NC(=O)[C@H](Cc2ccc(O)cc2)NC(=O)[C@H](CC(N)=O)NC(=O)[C@H](CCCNC(=N)N)NC(=O)[C@H](CO)NC(=O)CNC1=O (cyclo(GSRNYI)) |
| – | – | 48 | – | – | CC[C@H](C)[C@@H]1NC(=O)[C@H](Cc2ccc(O)cc2)NC(=O)[C@H](CC(N)=O)NC(=O)[C@H](CCCNC(=N)N)NC(=O)[C@H](CO)NC(=O)[C@@H](CO)NC(=O)[C@H]([C@@H](C)CC)NC(=O)[C@H](Cc2ccc(O)cc2)NC(=O)[C@H](CC(N)=O)NC(=O)[C@H](CCCNC(=N)N)NC(=O)[C@H](CO)NC(=O)[C@@H](CO)NC1=O |

| SMILES | Activity [1] [%] | Activity [2] [%] | Activity [3] [%] | Activity [4] [%] | Activity [5] [%] |
| --- | --- | --- | --- | --- | --- |
| CC[C@H](C)[C@H](NC(=O)[C@@H](N)Cc1ccc(O)cc1)C(=O)NCC(=O)N[C@@H](CO)C(=O)N[C@@H](CCCNC(=N)N)C(=O)N[C@H](C)C(=O)N[C@H](CCSC)C(=O)O | 31 | – | 53 | – | – |
